Results taken from the SangsterLogP compilation.

Assay: method code SF-HPLC, from DOI: 10.1016/j.bmc.2003.11.030, PMID: 14759727

FC(F)(F)c1ccc2[nH]c(NCCCc3c[nH]cn3)nc2c1
logD (pH 7.4): 3.03

CCCCc1ccc2[nH]c(NCCCc3c[nH]cn3)nc2c1
logD (pH 11.0): 3.93

FC(F)(F)c1ccc2[nH]c(NCCc3c[nH]cn3)nc2c1
logD (pH 7.4): 2.82

c1ccc2[nH]c(NCCCc3cnc[nH]3)nc2c1
logD (pH 11.0): 1.78

Nc1ccc2[nH]c(NCCCc3c[nH]cn3)nc2c1
logD (pH 11.0): 0.17

Nc1ccc2[nH]c(NCCc3c[nH]cn3)nc2c1
logD (pH 11.0): 0.01

O=[N+]([O-])c1ccc2[nH]c(NCCc3c[nH]cn3)nc2c1
logD (pH 7.4): 1.81

CCCCc1ccc2[nH]c(NCCc3c[nH]cn3)nc2c1
logD (pH 11.0): 3.64

CCOC(=O)c1ccc2[nH]c(NCCc3c[nH]cn3)nc2c1
logD (pH 7.4): 2.28

COc1ccc2[nH]c(NCCc3c[nH]cn3)nc2c1
logD (pH 11.0): 1.43

c1ccc2[nH]c(NCCc3c[nH]cn3)nc2c1
logD (pH 11.0): 1.49

c1nc(CCNc2nc3cc4c(cc3[nH]2)OCO4)c[nH]1
logD (pH 11.0): 1.44

Clc1ccc2[nH]c(NCCc3c[nH]cn3)nc2c1
logD (pH 7.4): 2.31

CNC(=O)c1ccc2[nH]c(NCCc3c[nH]cn3)nc2c1
logD (pH 11.0): 0.48

Cc1ccc2[nH]c(NCCCc3c[nH]cn3)nc2c1
logD (pH 11.0): 2.26
